What is called pIC50 is the IC50 on a negative log10 scale, so that one unit is a factor of ten. The low end stands for a large IC50, the high end for a small IC50.

Consider 2 molecules from patent publication US20100240595A1, “Improved Antitumoral Treatments” (PHARMA MAR ,S.A., priority 2007, published 2010).

SMILES strings stand for the structures. pIC50: −log10 of the molar value. Starred links: 1 amine or outer side, 2 acyl side, 3 side chain; linkers in the order of their positions; H or OH if unused. Positions of bridges follow the written chain, without caps; N, C: chain ends. Non-standard residues stand in square brackets, D forms with d. Residues, ends and D or L forms follow the SMILES beside them. *: point of attachment. X1 = CC[C@H](C)[C@@H](N[*:1])[C@@H](O)CC(=O)O[C@H](C(=O)[C@H](C)C(=O)[*:2])C(C)C; NMeY = CN[C@@H](Cc1ccc(O)cc1)C(=O)O; dNMeL = CN[C@H](CC(C)C)C(=O)O; Pyruvoyl = CC(=O)C(=O)*

One series relates to PANC-1 cell line. As to the kind of experiment: In vitro cytotoxicity, MTS/PMS assay, single agents. Format: cell-based. As to conditions: Homo sapiens; PANC-1, 96 hours exposure, MTS/PMS viability. The procedure:
(§1) PANC-1 (ATCC CRL-1469) and MIA PaCa-2 (ATCC CRL-1420) cell lines obtained from ATCC (Rockville, Md.) were used to check the cytotoxicity of Aplidine and Gemcitabine hydrochloride salt in human pancreas carcinoma cell lines. These cell lines were maintained in Dulbecco's modified Eagle medium with 4 mmol/L glutamine containing 10% Fetal Bovine Serum (FBS), and 1% Penicillin/Streptomycin solution, at 37° C. in humidified atmosphere of 5% CO2.
(§2) Four thousand cells/well were plated in a 96/wells tissue culture plate and exposed to different concentrations of Aplidine or Gemcitabine for 96 hours at 37° C. and 5% CO2. At the end of the incubation the viability of the cells was tested with the MTS/PMS assay (Riss T L and Moravec R A, Mol. Biol. Cell, 1992, 3, 184a). Cell viability was correlated to the amount of formazan quantified spectrophotometrically at 450 nm (reference wavelength 670 nm) using a microplate reader (SpectraMax® Plus^384, Molecular Devices, Sunnyvale, Calif.).

Another series has as its system MIA PaCa-2 cell line. Described as above. Particulars: Homo sapiens; MIA PaCa-2, 96 hours exposure, MTS/PMS viability. Format: cell-based. The procedure:
as §1, §2

For series [1], the system named is AML and ALL samples from pediatric patients. Particulars: 5 nM; de novo or relapsed ALL and AML; cited from earlier work.
Another series concerns PANC-1 cells. Put plainly: Pancreatic cancer xenograft model, tumor volume. Format: in vivo, NCR Nu/Nu mice. As to conditions: median tumor volume.

Text for PANC-1 cells: Pathogen-free NCR Nu/Nu mice, of 5 to 6 weeks old and purchased from Taconic Farms (Germantown, N.Y.), were housed in microisolator cages under specific pathogen-free conditions. The animals were provided autoclaved food and water ad libitum.
Mice were inoculated subcutaneously in the right flank with 0.5×10^7 PANC-1 cells containing 10% matrigel.
As mentioned before, the vehicle used for the administration of Aplidine contained 15% Cremophor EL/15% Ethanol/70% WFI diluted in saline, whereas Gemcitabine was prepared in saline in order to be administered.
Both drugs were administered intra-peritoneally. […] Tumor size and weight of the animals were recorded every other day, starting from the first day of treatment. Tumor volume was calculated according to the formula:
tumor volume (mm^3)=(longer diameter)×[(shorter diameter)^2]/2.
Comparison of the median tumor volume in the treatment groups (T) to the median tumor volume in the control group (C) [T/C] on day 20 was used for evaluation of tumor efficacy. % T/C [T/C×100%] for each treatment is reported in Table 3.

As to `CC[C@H](C)[C@H]1NC(=O)[C@@H](NC(=O)[C@@H](CC(C)C)N(C)C(=O)[C@@H]2CCCN2C(=O)C(C)=O)[C@@H](C)OC(=O)[C@H](Cc2ccc(OC)cc2)N(C)C(=O)[C@@H]2CCCN2C(=O)[C@H](CC(C)C)NC(=O)[C@@H](C)C(=O)[C@H](C(C)C)OC(=O)C[C@@H]1O` [Aplidine] (Pyruvoyl-P[dNMeL]T[X1]LP[NMeY](Me); ester 3-C), the pIC50 in the series on PANC-1 cell line and in the series with MIA PaCa-2 cell line was 9.00 throughout. Besides, the “In vitro cytotoxic activity” value in series [1] was “cytotoxic activity”. Besides, the “% T/C on day 20” value in the series on PANC-1 cells (Aplidine 0.6 mg/kg on day 1 and 8, intra-peritoneally) is listed as 23%.

Turning to `Nc1ccn([C@@H]2O[C@H](CO)[C@@H](O)C2(F)F)c(=O)n1` [Gemcitabine, reference compound], the pIC50 in the series on PANC-1 cell line is 6.00; with MIA PaCa-2 cell line it was 6.82. The “% T/C on day 20” value in the series on PANC-1 cells (Gemcitabine 250 mg/kg on day 1, 4, 8 & 12, intra-peritoneally) was determined as 45%.
